The values that follow come from patent US4563527A, “Amidine compounds” (Torii & Co., Ltd., priority 1984, dated 1986).

In data set [1] the target is T1, C1r (Homo sapiens, UniProt P00736).
T1 sequence (P00736 464-705 limits assumed): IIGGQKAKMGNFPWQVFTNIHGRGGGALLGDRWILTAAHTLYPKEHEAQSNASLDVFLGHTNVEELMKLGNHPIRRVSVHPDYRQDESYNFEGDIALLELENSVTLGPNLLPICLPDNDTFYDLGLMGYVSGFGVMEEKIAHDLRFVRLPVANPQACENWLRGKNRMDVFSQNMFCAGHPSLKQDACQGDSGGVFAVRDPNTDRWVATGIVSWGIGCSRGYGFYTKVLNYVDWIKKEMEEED
T1 sequence (P00736 18-463 partner limits assumed): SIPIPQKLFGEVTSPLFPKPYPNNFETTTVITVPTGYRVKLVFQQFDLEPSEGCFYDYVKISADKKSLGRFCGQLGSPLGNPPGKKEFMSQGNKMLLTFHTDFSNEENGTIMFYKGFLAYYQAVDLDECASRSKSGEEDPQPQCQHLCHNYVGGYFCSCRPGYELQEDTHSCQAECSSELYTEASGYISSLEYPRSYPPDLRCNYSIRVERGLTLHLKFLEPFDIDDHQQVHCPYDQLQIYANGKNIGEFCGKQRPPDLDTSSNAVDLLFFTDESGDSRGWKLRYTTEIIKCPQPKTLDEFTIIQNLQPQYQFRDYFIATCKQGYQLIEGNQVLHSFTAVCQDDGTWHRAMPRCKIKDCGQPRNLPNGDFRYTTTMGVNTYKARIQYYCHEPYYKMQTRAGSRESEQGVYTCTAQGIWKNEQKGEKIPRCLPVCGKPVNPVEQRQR
The data set can be described thus: biochemical. To be noted: molar concentration inhibiting 50% of AAME hydrolysis; read-out: ID50 C1r (Anti-C1 activity).

The nature of data set [2]: Median lethal dose (LD50). To be noted: in vivo, mouse.
Data set [3] has as its target T2, C1s (Homo sapiens, UniProt P09871).
T2 sequence (P09871 438-688 limits assumed): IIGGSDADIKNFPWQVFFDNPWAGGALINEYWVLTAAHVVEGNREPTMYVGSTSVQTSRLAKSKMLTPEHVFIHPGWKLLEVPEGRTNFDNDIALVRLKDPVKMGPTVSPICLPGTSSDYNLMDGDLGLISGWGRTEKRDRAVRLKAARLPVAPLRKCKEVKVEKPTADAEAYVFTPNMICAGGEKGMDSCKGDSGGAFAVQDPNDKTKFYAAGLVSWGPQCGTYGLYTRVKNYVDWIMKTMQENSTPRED
T2 sequence (P09871 16-437 partner limits assumed): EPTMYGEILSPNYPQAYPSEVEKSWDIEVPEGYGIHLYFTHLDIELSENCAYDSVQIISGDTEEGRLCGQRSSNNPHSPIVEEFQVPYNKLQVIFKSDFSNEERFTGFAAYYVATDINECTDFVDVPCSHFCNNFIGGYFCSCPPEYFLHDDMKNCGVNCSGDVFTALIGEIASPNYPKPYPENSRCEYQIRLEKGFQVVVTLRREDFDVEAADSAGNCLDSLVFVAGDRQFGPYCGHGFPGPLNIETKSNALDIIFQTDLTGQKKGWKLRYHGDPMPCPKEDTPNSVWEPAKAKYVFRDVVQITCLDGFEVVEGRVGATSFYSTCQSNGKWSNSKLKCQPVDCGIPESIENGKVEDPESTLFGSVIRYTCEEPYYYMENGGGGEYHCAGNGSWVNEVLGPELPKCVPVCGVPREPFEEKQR
The data set can be described thus: Anti-C1s activity (hydrolysis of ATEE). Type of data set: biochemical. As to conditions: molar concentration inhibiting 50% of ATEE hydrolysis; read-out: ID50 C1s (Anti-C1 activity). On the procedure:
The anti-C1 esterase (C1r, C1s) activity was determined according to the method of Okamura et al. [K. Okamura, M. Muramatsu and B. Fujii, Biochem. Biophys. Acta, 295, 252-257 (1973)]. The inhibition of complement mediated hemolysis was determined according to the method of Baker et al. [B. R. Baker and E. H. Erickson, J. Med. Chem. 12, 408-414 (1969)]. The figures in Table 2 have the following meanings:
C1s: Molar concentration of the test compound which inhibits 50% of the ability of C1s to hydrolyse ATEE (acetyltyrosin ethyl ester) (ID50).

Data set [4] has as its target Plasmin (Homo sapiens, UniProt P00747). The data set can be described thus: Anti-plasmin activity (hydrolysis of TAME). In kind it is biochemical. As to conditions: for IC50: molar concentration inhibiting 50% of TAME hydrolysis, read-out: ID50 plasmin. On the procedure: The anti-trypsin, anti-plasmin, anti-kallikrein and anti-thrombin activities were determined according to the method of Muramatsu et al. [M. Muramatus, T. Onishi, S. Makino, Y. Hayashi and S. Fujii, J. of Biochem., 58, 214 (1965)]. […] The compound No. corresponds to the compound number shown in Examples.

The target of data set [5] is Thrombin (Homo sapiens, UniProt P00734). The data set can be described thus: biochemical. To be noted: for inhibition at 10 µM: figure in parentheses, at 1×10^-5 M, TAME, read-out: percentage inhibition of thrombin; for IC50: read-out: ID50 thrombin.
The test system of data set [6] is complement. The data set can be described thus: Inhibition of complement mediated hemolysis. In kind it is cell-based. As to the method: The complement mediated hemolysis is widely used as a means to determine the titration of complement. The principle of this method is based on the fact that hemolysis is caused by the activation of complement, when the latter is added to a complex (immune complex) of erythrocytes and the antibody thereof. The degree of hemolysis varies in proportion to the amount of complement added. Therefore, when a known amount of complement admixed with a C1 esterase inhibitor is used, the hemolysis must be suppressed in proportion to the inhibitory activity.
The anti-C1 esterase (C1r, C1s) activity was determined according to the method of Okamura et al. [K. Okamura, M. Muramatsu and B. Fujii, Biochem. Biophys. […] The figures in Table 2 have the following meanings: […]

Data set [7] has as its target T3, Trypsin (Bos taurus, UniProt P00760).
T3 sequence (P00760 24-246): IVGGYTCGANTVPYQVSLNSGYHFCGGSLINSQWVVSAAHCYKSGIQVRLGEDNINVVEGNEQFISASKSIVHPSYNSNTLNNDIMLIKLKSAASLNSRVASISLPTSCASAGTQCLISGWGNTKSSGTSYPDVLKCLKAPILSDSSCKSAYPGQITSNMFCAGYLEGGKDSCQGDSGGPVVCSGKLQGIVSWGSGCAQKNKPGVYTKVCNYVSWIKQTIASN
The data set can be described thus: Anti-trypsin activity (hydrolysis of TAME). In kind it is biochemical. To be noted: for IC50: molar concentration inhibiting 50% of TAME hydrolysis, read-out: ID50 trypsin. On the procedure: (§1) The anti-trypsin, anti-plasmin, anti-kallikrein and anti-thrombin activities were determined according to the method of Muramatsu et al. [M. Muramatus, T. Onishi, S. Makino, Y. Hayashi and S. Fujii, J. of Biochem., 58, 214 (1965)]. The data summarized in Table 1 are expressed in terms of molar concentration (ID50) of the test compound which inhibits 50% of the activity of each enzyme to hydrolyze TAME (tosylalginine methyl ester). The compound No. corresponds to the compound number shown in Examples.

In data set [8] the test system is Kallikrein. The data set can be described thus: Anti-kallikrein activity (hydrolysis of TAME). In kind it is biochemical. To be noted: molar concentration inhibiting 50% of TAME hydrolysis; read-out: ID50 kallikrein. As to the method: as §1
The subject of data set [9] is Forssman shock. Kind of data set: Forssman shock. In kind it is in vivo, guinea pig. To be noted: test compound 3 mg/kg before intravenous hemolysin; individual male guinea pigs; control died at 278, 318, 296 sec. An excerpt:
Quite different from other animals, guinea pig has on the surface of its organs a specific antigen called Forssman antigen which specifically reacts with the antibody of sheep erythrocyte. Forssman shock is based on the above principle and is a shock caused by the administration of antibody of sheep erythrocyte to a guinea pig. The Forssman shock was investigated in detail by many researches and it was definitely shown that this shock is a model case where the complement plays the principal part and that the shock is associated with a classical pathway in which the complement system is activated progressively starting from C1. Since the participation of complement in autoimmune diseases has been established, the Forssman shock can be said to be useful means for testing a drug for autoimmune diseases. A drug effective for the treatment of Forssman shock is useful as a drug of autoimmune diseases. [Anti-trypsin, anti-plasmin, anti-kallikrein and anti-thrombin activities]
The experiment was performed according to the method of I. G. Offerness et al. [Biochem. Pharmacol., 27 (14), 1873-1878 (1978)]. Male Hartlay guinea pig of about 300 g in body weight was used. Each guinea pig of the control group was administered intravenously with hemolysin (minimum dose to cause the shock) (commercial hemolysin, 5,000 U as assayed by the method of Ogata) and the time elapsed until death was observed. […]

[10] abbreviates: molar concentration inhibiting 50% of TAME hydrolysis.

Like-named read-outs stand apart in the source and are kept apart here.

Sequence of Plasmin (P00747 581-810 limits assumed, species assumed): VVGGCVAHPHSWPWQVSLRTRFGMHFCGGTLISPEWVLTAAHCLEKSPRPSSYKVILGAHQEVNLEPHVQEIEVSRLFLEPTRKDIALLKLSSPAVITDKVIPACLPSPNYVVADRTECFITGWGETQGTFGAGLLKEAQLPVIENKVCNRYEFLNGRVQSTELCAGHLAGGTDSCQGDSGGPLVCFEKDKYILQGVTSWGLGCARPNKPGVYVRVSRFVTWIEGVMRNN
Sequence of Plasmin (P00747 97-580 partner limits assumed, species assumed): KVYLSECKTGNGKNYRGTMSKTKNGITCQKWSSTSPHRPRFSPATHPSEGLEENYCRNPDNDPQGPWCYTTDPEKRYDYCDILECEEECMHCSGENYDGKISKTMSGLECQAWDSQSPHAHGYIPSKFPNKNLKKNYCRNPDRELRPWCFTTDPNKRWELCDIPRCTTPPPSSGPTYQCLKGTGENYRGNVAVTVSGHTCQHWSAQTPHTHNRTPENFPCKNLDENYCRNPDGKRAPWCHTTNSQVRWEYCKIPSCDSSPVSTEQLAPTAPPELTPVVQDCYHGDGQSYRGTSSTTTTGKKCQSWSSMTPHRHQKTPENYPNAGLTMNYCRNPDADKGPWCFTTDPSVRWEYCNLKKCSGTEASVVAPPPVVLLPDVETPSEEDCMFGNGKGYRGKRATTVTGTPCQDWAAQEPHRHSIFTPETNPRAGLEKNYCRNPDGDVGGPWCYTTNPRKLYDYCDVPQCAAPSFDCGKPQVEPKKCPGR

Regarding `N=C(N)NCc1ccc(C(=O)Oc2ccc3cc(C(=N)N)ccc3c2)o1` [Compound No. 1, 6-amidino-2-naphthyl 5-guanidinomethyl-furan-2-carboxylate], the results for the IC50 in data set [1], in data set [3] and in data set [8] were 2000 nM, 3000 nM and 5000 nM, respectively. Also, the LD50 (in general, the dose at which mortality reaches 50%) was found to be 100 mg/kg in data set [2] (ip, I.P.) and 2000 mg/kg in data set [2] (po, P.O.). The inhibition (as a rule, the percentage by which the read-out fell short of the control) at 10 µM in data set [4] (figure in parentheses, at 1×10^-5 M, TAME, read-out: percentage inhibition of plasmin) was 15%; in data set [5], 22%; in data set [7] (figure in parentheses, at 1×10^-5 M, TAME, read-out: percentage inhibition of trypsin), 35%. In addition, the “Inhibition of complement mediated hemolysis (%)” value (“Inhibition … (%)” for short) is given as 100% in data set [6] (1 × 10^-5), 99% in data set [6] (1 × 10^-6) and 75% in data set [6] (1 × 10^-7). In addition, in [9], the “time elapsed until death (survival) in Forssman shock” value is recorded as “Survival”.

As to `N=C(N)NCc1ccc(C(=O)Oc2ccc3cc(C(=N)N)ccc3c2)s1` [compound 28], the IC50 in data set [1] came out at 2000 nM; in data set [3], 3000 nM; in [4] it was 9000 nM; in data set [7] it was 4000 nM; in data set [8] it was 4000 nM. In addition, the inhibition at 10 µM in [5] was determined as 46%. Also, the entries for the “Inhibition … (%)” value in data set [6] (1 × 10^-5), in data set [6] (1 × 10^-6) and in [6] (1 × 10^-7) were 100%, 82% and 35%, respectively.

On to `N=C(N)c1ccc2cc(OC(=O)c3ccc(CN)o3)ccc2c1` [compound 33], for which the IC50 came to 700 nM in data set [1]; 2000 nM in data set [3]; 400 nM in [4]; 3000 nM in [5]; 500 nM in data set [7]; 4000 nM in [8]. Also, the “Inhibition … (%)” value in data set [6] (1 × 10^-5) stood at 97%; in data set [6] (1 × 10^-6), 97%; in data set [6] (1 × 10^-7), 81%.

As for `N=C(N)c1ccc2cc(OC(=O)c3ccc(CNC(=O)C(N)CCCCN)o3)ccc2c1` (stereo not drawn) [compound 35], the IC50 in data set [1] was found to be 2000 nM; in data set [3], 3000 nM; in [4], 3000 nM; in [5], 3000 nM; in data set [7], 8000 nM; in [8] it was 900 nM. The “Inhibition … (%)” value in data set [6] (1 × 10^-5) is listed as 100%; in data set [6] (1 × 10^-6) it was 100%; in [6] (1 × 10^-7), 71%.

In the case of `N=C(N)c1ccc2cc(OC(=O)c3ccc(CNC(=O)C(N)COCc4ccccc4)o3)ccc2c1` (stereo not drawn) [compound 36], the IC50 amounted to 500 nM in [1]; 4000 nM in data set [3]; 600 nM in [4]; 300 nM in data set [5] (setting [10]); 200 nM in [7]; 600 nM in data set [8]. Further, the entries for the “Inhibition … (%)” value in data set [6] (1 × 10^-5), in data set [6] (1 × 10^-6) and in [6] (1 × 10^-7) were 100%, 100% and 68%, respectively.

On to `N=C(N)c1ccc2cc(OC(=O)c3ccc(NC(=O)C4CCC(CN)CC4)o3)ccc2c1` (stereo not drawn) [compound 37], for which the IC50 amounted to 3000 nM in data set [1]; 400 nM in data set [3]; 400 nM in [4]; 900 nM in data set [5] (setting [10]); 700 nM in data set [7]; 400 nM in data set [8]. For the same compound, the “Inhibition … (%)” value is reported as 99% in [6] (1 × 10^-5), 78% in data set [6] (1 × 10^-6) and 12% in [6] (1 × 10^-7).

In the case of `N=C(N)c1ccc2cc(OC(=O)c3ccc(CNC(=O)C4CCC(CN)CC4)o3)ccc2c1` (stereo not drawn) [compound 38], the IC50 amounted to 300 nM in data set [1]; 3000 nM in data set [3]; 400 nM in data set [4]; 80 nM in data set [5] (setting [10]); 500 nM in data set [7]; 300 nM in data set [8]. For the same compound, the entries for the “Inhibition … (%)” value in data set [6] (1 × 10^-5), in [6] (1 × 10^-6) and in data set [6] (1 × 10^-7) were 100%, 100% and 98%, respectively.

As for `N=C(N)c1ccc2cc(OC(=O)c3ccc(CCNC(=O)C4CCC(CN)CC4)o3)ccc2c1` (stereo not drawn) [compound 39], the IC50 in data set [1] amounted to 400 nM; in [3], 4000 nM; in [4], 400 nM; in data set [5] (setting [10]) it was 2000 nM; in [7], 800 nM; in data set [8], 500 nM. In addition, the “Inhibition … (%)” value in data set [6] (1 × 10^-5) amounted to 100%; in [6] (1 × 10^-6), 100%; in [6] (1 × 10^-7), 71%.
